Experimental data as given in patent publication US10519152B2, “Compounds and their use in treating cancer” (AstraZeneca AB, priority 2017, dated 2019).

molecular target: T1, recombinant human Estrogen Receptor alpha ligand binding domain, residues 307-554 (ER alpha-LBD (GST)) (Homo sapiens, UniProt P03372); experiment: ERα binding assay (LanthaScreen TR-FRET competition); conditions: TR-FRET competition with Fluormone ES2 tracer, 4 hours at room temperature; single experiment or average of two or more
T1 construct: made in house
T1 sequence (P03372 307-554): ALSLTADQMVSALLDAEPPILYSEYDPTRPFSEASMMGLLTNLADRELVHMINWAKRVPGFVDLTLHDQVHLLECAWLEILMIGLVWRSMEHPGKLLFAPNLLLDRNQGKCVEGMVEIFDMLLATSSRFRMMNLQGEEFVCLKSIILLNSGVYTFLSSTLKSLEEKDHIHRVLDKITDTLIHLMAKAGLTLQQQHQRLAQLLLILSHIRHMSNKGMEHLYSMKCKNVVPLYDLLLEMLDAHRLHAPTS

| SMILES | IC50 |
| --- | --- |
| Cc1ncsc1-c1ccc(CNC(=O)[C@@H]2C[C@@H](O)CN2C(=O)[C@@H](NC(=O)COCCO[C@@H](C)[C@H](C)OCCOc2cc(F)c([C@@H]3c4[nH]c5ccccc5c4C[C@@H](C)N3CC(C)(C)F)c(F)c2)C(C)(C)C)cc1 [Example 82, (2S,4R)-1-((2S,10S,11S)-2-(tert-butyl)-14-(3,5-difluoro-4-((1R,3R)-2-(2-fluoro-2-methylpropyl)-3-methyl-2,3,4,9-tetrahydro-1H-pyrido[3,4-b]indol-1-yl)phenoxy)-10,11-dimethyl-4-oxo-6,9,12-trioxa-3-azatetradecanoyl)-4-hydroxy-N-(4-(4-methylthiazol-5-yl)benzyl)pyrrolidine-2-carboxamide] | 0.9 nM |
| Cc1ncsc1-c1ccc(CNC(=O)[C@@H]2C[C@@H](O)CN2C(=O)[C@@H](NC(=O)COCCCCOCCCOc2cc(F)c([C@@H]3c4[nH]c5ccccc5c4C[C@@H](C)N3CC(C)(C)F)c(F)c2)C(C)(C)C)cc1 [Example 93] | 0.7 nM |
| Cc1ncsc1-c1ccc(CNC(=O)[C@@H]2C[C@@H](O)CN2C(=O)[C@@H](NC(=O)COCc2ccc(OCCOc3cc(F)c([C@@H]4c5[nH]c6ccccc6c5C[C@@H](C)N4CC(C)(C)F)c(F)c3)cc2)C(C)(C)C)cc1 [Example 4, (2S,4R)-1-((S)-2-(2-((4-(2-(3,5-Difluoro-4-((1R,3R)-2-(2-fluoro-2-methylpropyl)-3-methyl-2,3,4,9-tetrahydro-1H-pyrido[3,4-b]indol-1-yl)phenoxy)ethoxy)benzyl)oxy)acetamido)-3,3-dimethylbutanoyl)-4-hydroxy-N-(4-(4-methylthiazol-5-yl)benzyl)pyrrolidine-2-carboxamide] | 0.8 nM |
| Cc1ncsc1-c1ccc(CNC(=O)[C@@H]2C[C@@H](O)CN2C(=O)[C@@H](NC(=O)COCCOCCOCCOCC(=O)Nc2cc(F)c([C@@H]3c4[nH]c5ccccc5c4C[C@@H](C)N3CC(C)(C)F)c(F)c2)C(C)(C)C)cc1 [Example 68, N1-(3,5-difluoro-4-((1R,3R)-2-(2-fluoro-2-methylpropyl)-3-methyl-2,3,4,9-tetrahydro-1H-pyrido[3,4-b]indol-1-yl)phenyl)-N14-((S)-1-((2S,4R)-4-hydroxy-2-((4-(4-methylthiazol-5-yl)benzyl)carbamoyl)pyrrolidin-1-yl)-3,3-dimethyl-1-oxobutan-2-yl)-3,6,9,12-tetraoxatetradecanediamide] | 1 nM |
| Cc1ncsc1-c1ccc(CNC(=O)[C@@H]2C[C@@H](O)CN2C(=O)[C@@H](NC(=O)COCCOCCOCC(=O)Nc2ccc([C@@H]3c4[nH]c5ccccc5c4C[C@@H](C)N3CC(C)(C)F)cc2)C(C)(C)C)cc1 [Example 57, (2S,4R)-1-((S)-2-(tert-butyl)-14-((4-((1R,3R)-2-(2-fluoro-2-methylpropyl)-3-methyl-2,3,4,9-tetrahydro-1H-pyrido[3,4-b]indol-1-yl)phenyl)amino)-4,14-dioxo-6,9,12-trioxa-3-azatetradecanoyl)-4-hydroxy-N-(4-(4-methylthiazol-5-yl)benzyl)pyrrolidine-2-carboxamide, Trifluoroacetic Acid] | 8.8 nM |
